pIC50: −log10 of the molar value.

This experiment has as its target T1, Recombinant full length human OGA enzyme (Homo sapiens, UniProt O60502).
T1 construct: Recombinant full length human OGA enzyme was purchased from Origene; purchased Origene
T1 sequence (O60502 1-916): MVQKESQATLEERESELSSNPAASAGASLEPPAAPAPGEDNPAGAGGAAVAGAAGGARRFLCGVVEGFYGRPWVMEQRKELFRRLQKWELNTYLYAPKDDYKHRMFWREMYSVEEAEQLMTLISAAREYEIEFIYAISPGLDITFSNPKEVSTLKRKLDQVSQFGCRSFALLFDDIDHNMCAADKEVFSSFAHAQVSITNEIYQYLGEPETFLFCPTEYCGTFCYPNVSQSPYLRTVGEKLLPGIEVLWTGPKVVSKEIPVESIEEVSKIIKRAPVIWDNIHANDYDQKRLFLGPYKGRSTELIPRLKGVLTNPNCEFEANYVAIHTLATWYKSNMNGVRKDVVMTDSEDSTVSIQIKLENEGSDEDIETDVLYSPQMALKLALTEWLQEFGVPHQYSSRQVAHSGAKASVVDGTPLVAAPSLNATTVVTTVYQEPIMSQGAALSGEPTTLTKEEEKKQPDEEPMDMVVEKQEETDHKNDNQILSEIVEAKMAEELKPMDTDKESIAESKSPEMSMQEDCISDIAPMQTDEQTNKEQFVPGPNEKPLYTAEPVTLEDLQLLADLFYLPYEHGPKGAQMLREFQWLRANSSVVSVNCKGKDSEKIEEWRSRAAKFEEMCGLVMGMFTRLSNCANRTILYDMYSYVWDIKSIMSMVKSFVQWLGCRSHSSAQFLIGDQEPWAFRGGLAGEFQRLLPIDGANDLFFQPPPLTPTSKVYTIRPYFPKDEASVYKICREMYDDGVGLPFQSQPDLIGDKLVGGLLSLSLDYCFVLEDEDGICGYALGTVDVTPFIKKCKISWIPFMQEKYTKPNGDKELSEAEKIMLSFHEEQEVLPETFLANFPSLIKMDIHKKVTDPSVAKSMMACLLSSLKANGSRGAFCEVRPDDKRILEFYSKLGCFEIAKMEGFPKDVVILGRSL
The experiment in a line: OGA enzyme inhibition biochemical assay. As to conditions: 1 nM OGA, 100 μM 4-MUGlcNAc (Km), pH 6.4, 90 minutes at room temperature, 10-point dose-response from 20 μM. An outline of the steps: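 1 nM OGA with 100 μM 4-MUGlcNAc (Km) in McIlvaine buffer pH 6.4, 0.01% BSA, 90 min at room temperature; quenched with 3M glycine pH 10, fluorescence Ex 355/Em 460 nm. 10-point, 4-fold dilutions from 20 μM; 4-parameter variable-slope fit.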
The term pIC50 denotes the IC50 on a negative log10 scale, so that one unit is a factor of ten. Consider `CC(=O)Nc1ncc(CN2C[C@H](Oc3ccc4sccc4n3)C[C@@H]2C)s1` [Example 4, N-(5-(((2S,4R)-2-methyl-4-(thieno[3,2-b]pyridin-5-yloxy)pyrrolidin-1-yl)methyl)thiazol-2-yl)acetamide], for which the pIC50 is more than 9.00.

As for `CC(=O)Nc1nc(F)c(CN2C[C@H](Oc3ccc4occc4n3)C[C@@H]2C)s1` [Example 66, N-(4-fluoro-5-(((2S,4R)-4-(furo[3,2-b]pyridin-5-yloxy)-2-methylpyrrolidin-1-yl)methyl)thiazol-2-yl)acetamide], the negative-log IC50 (pIC50) is more than 9.00.

As for `CC(=O)Nc1nc(F)c(CN2C[C@H](Oc3cnc4nccn4c3)C[C@@H]2C)s1` [Example 164, N-(4-fluoro-5-(((2S,4R)-4-(imidazo[1,2-a]pyrimidin-6-yloxy)-2-methylpyrrolidin-1-yl)methyl)thiazol-2-yl)acetamide], the pIC50 was more than 9.00.

For the compound `CC(=O)Nc1ncc(CN2C[C@H](Oc3ccnc4nc(C(F)(F)F)nn34)C[C@@H]2C)s1` [Example 34, N-(5-(((2S,4R)-2-methyl-4-((2-(trifluoromethyl)-[1,2,4]triazolo[1,5-a]pyrimidin-7-yl)oxy)pyrrolidin-1-yl)methyl)thiazol-2-yl)acetamide], the pIC50 is 7.66.

For `CC(=O)Nc1ncc(CN2C[C@H](Oc3cc4nccn4cn3)C[C@@H]2C)s1` [Example 39, N-(5-(((2S,4R)-4-(imidazo[1,2-c]pyrimidin-7-yloxy)-2-methylpyrrolidin-1-yl)methyl)thiazol-2-yl)acetamide], the pIC50 was more than 9.00.

Regarding `CC(=O)Nc1nc(F)c(CN2C[C@H](Oc3cncc4nccn34)C[C@@H]2C)s1` [Example 100, N-(4-fluoro-5-(((2S,4R)-4-(imidazo[1,2-a]pyrazin-5-yloxy)-2-methylpyrrolidin-1-yl)methyl)thiazol-2-yl)acetamide], the pIC50 was more than 9.00.

For `CC(=O)Nc1nc(F)c(CN2C[C@H](Oc3ccc4nn(C(F)F)cc4n3)C[C@@H]2C)s1` [Example 154, N-(5-(((2S,4R)-4-((2-(difluoromethyl)-2H-pyrazolo[4,3-b]pyridin-5-yl)oxy)-2-methylpyrrolidin-1-yl)methyl)-4-fluorothiazol-2-yl)acetamide], the pIC50 is more than 9.00.

Consider `CC(=O)Nc1ncc(CN2C[C@H](Oc3ccnc4c3CCCC4)C[C@@H]2C)s1` [Example 33, N-(5-(((2S,4R)-2-methyl-4-((5,6,7,8-tetrahydroquinolin-4-yl)oxy)pyrrolidin-1-yl)methyl)thiazol-2-yl)acetamide], for which the pIC50 was 7.80.

As to `CC(=O)Nc1nc(F)c(CN2C[C@H](Oc3cc4cn(C)nc4cn3)C[C@@H]2C)s1` [Example 89, N-(4-fluoro-5-(((2S,4R)-2-methyl-4-((2-methyl-2H-pyrazolo[3,4-c]pyridin-5-yl)oxy)pyrrolidin-1-yl)methyl)thiazol-2-yl)acetamide], the pIC50 is more than 9.00.

With `CC(=O)Nc1nc(F)c(CN2C[C@H](Oc3ccc4nc(C)nn4c3)C[C@@H]2C)s1` [Example 144, N-(4-fluoro-5-(((2S,4R)-2-methyl-4-((2-methyl-[1,2,4]triazolo[1,5-a]pyridin-6-yl)oxy)pyrrolidin-1-yl)methyl)thiazol-2-yl)acetamide], the pIC50 was more than 9.00.

`CC(=O)Nc1ncc(CN2C[C@H](Oc3cc(C(F)(F)F)c4cn(C)nc4n3)C[C@@H]2C)s1` [Example 12, N-(5-(((2S,4R)-2-methyl-4-((2-methyl-4-(trifluoromethyl)-2H-pyrazolo[3,4-b]pyridin-6-yl)oxy)pyrrolidin-1-yl)methyl)thiazol-2-yl)acetamide]: the pIC50 is more than 9.00.

Regarding `CCc1cc2c(O[C@@H]3C[C@H](C)N(Cc4cnc(NC(C)=O)s4)C3)nccc2o1` [Example 15, N-(5-(((2S,4R)-4-((2-ethylfuro[3,2-c]pyridin-4-yl)oxy)-2-methylpyrrolidin-1-yl)methyl)thiazol-2-yl)acetamide], the pIC50 is more than 9.00.

In the case of `CC(=O)Nc1ncc(CN2C[C@H](Oc3ccn4nccc4c3)C[C@@H]2C)s1` [Example 59, N-(5-(((2S,4R)-2-methyl-4-(pyrazolo[1,5-a]pyridin-5-yloxy)pyrrolidin-1-yl)methyl)thiazol-2-yl)acetamide], the pIC50 is more than 9.00.

As for `CC(=O)Nc1nc(F)c(CN2C[C@H](Oc3ccc4nnn(C)c4n3)C[C@@H]2C)s1` [Example 150, N-(4-fluoro-5-(((2S,4R)-2-methyl-4-((3-methyl-3H-[1,2,3]triazolo[4,5-b]pyridin-5-yl)oxy)pyrrolidin-1-yl)methyl)thiazol-2-yl)acetamide], the pIC50 was more than 9.00.

As to `CC(=O)Nc1nc(F)c(CN2C[C@H](Oc3nccc4cn(C)nc34)C[C@@H]2C)s1` [Example 137, N-(4-fluoro-5-(((2S,4R)-2-methyl-4-((2-methyl-2H-pyrazolo[3,4-c]pyridin-7-yl)oxy)pyrrolidin-1-yl)methyl)thiazol-2-yl)acetamide], the pIC50 was 8.37.

`CC(=O)Nc1nc(F)c(CN2C[C@H](Oc3ncnc4ccc(F)cc34)C[C@@H]2C)s1` [Example 123, N-(4-fluoro-5-(((2S,4R)-4-((6-fluoroquinazolin-4-yl)oxy)-2-methylpyrrolidin-1-yl)methyl)thiazol-2-yl)acetamide]: the pIC50 was 8.39.

Turning to `CC(=O)Nc1ncc(CN2C[C@H](Oc3cnc4cc(F)c(F)cc4n3)C[C@@H]2C)s1` [Example 9, N-(5-(((2S,4R)-4-((6,7-difluoroquinoxalin-2-yl)oxy)-2-methylpyrrolidin-1-yl)methyl)thiazol-2-yl)acetamide], the pIC50 was more than 9.00.

`CC(=O)Nc1nc(F)c(CN2C[C@H](Oc3ccn4cnnc4c3)C[C@@H]2C)s1` [Example 146, N-(5-(((2S,4R)-4-([1,2,4]triazolo[4,3-a]pyridin-7-yloxy)-2-methylpyrrolidin-1-yl)methyl)-4-fluorothiazol-2-yl)acetamide]: the pIC50 is more than 9.00.

On to `COc1nc(O[C@@H]2C[C@H](C)N(Cc3sc(NC(C)=O)nc3F)C2)cc2cc(F)ccc12` [Example 131, N-(4-fluoro-5-(((2S,4R)-4-((6-fluoro-1-methoxyisoquinolin-3-yl)oxy)-2-methylpyrrolidin-1-yl)methyl)thiazol-2-yl)acetamide], for which the pIC50 is more than 9.00.

With `CC(=O)Nc1nc(F)c(CN2C[C@H](Oc3ncnc4ccoc34)C[C@@H]2C)s1` [Example 94, N-(4-fluoro-5-(((2S,4R)-4-(furo[3,2-d]pyrimidin-4-yloxy)-2-methylpyrrolidin-1-yl)methyl)thiazol-2-yl)acetamide], the pIC50 was more than 9.00.

Consider `CC(=O)Nc1nc(F)c(CN2C[C@H](Oc3ccnc4cnn(C)c34)C[C@@H]2C)s1` [Example 135, N-(4-fluoro-5-(((2S,4R)-2-methyl-4-((1-methyl-1H-pyrazolo[4,3-b]pyridin-7-yl)oxy)pyrrolidin-1-yl)methyl)thiazol-2-yl)acetamide], for which the pIC50 was more than 9.00.

For `COc1ccc2ccc(O[C@@H]3C[C@H](C)N(Cc4cnc(NC(C)=O)s4)C3)nc2n1` [Example 166, N-(5-(((2S,4R)-4-((7-methoxy-1,8-naphthyridin-2-yl)oxy)-2-methylpyrrolidin-1-yl)methyl)thiazol-2-yl)acetamide], the pIC50 was more than 9.00.

As for `CC(=O)Nc1ncc(CN2C[C@H](Oc3ccnc4ccc(C)cc34)C[C@@H]2C)s1` [Example 23, N-(5-(((2S,4R)-2-methyl-4-((6-methylquinolin-4-yl)oxy)pyrrolidin-1-yl)methyl)thiazol-2-yl)acetamide], the pIC50 is 8.62.

On to `CC(=O)Nc1nc(F)c(CN2C[C@H](Oc3nccn4cnnc34)C[C@@H]2C)s1` [Example 101, N-(5-(((2S,4R)-4-([1,2,4]triazolo[4,3-a]pyrazin-8-yloxy)-2-methylpyrrolidin-1-yl)methyl)-4-fluorothiazol-2-yl)acetamide], for which the pIC50 was more than 9.00.

In the case of `CC(=O)Nc1nc(F)c(CN2C[C@H](Oc3nccc4occc34)C[C@@H]2C)s1` [Example 70, N-(4-fluoro-5-(((2S,4R)-4-(furo[3,2-c]pyridin-4-yloxy)-2-methylpyrrolidin-1-yl)methyl)thiazol-2-yl)acetamide], the pIC50 was 8.92.

For `CC(=O)Nc1ncc(CN2C[C@H](Oc3nccc4oc(C(N)=O)cc34)C[C@@H]2C)s1` [Example 25, 4-(((3R,5S)-1-((2-acetamidothiazol-5-yl)methyl)-5-methylpyrrolidin-3-yl)oxy)furo[3,2-c]pyridine-2-carboxamide], the pIC50 is 8.55.

As to `CC(=O)Nc1ncc(CN2C[C@H](Oc3cc(C)nc4ccccc34)C[C@@H]2C)s1` [Example 13, N-(5-(((2S,4R)-2-methyl-4-((2-methylquinolin-4-yl)oxy)pyrrolidin-1-yl)methyl)thiazol-2-yl)acetamide], the pIC50 is more than 9.00.
